What was measured:
[1] = tested on: PC9/ER cells; test: Cell viability assay (CellTiter-Glo 2.0), erlotinib-resistant PC9/ER cells; assay type: cell-based; details: Homo sapiens, PC-9/ER; Table 4; 72 h drug treatment, combinations of EGFR TKIs and inhibitor of Formula (I); read-out: Relative cell viability; IC50 PC9ER
From the text: (§1) To explore c-MET and AXL mechanisms of EGFR TKI resistance, resistant cells of the EGFR TKI hypersensitive EGFR exon 19 mutant NSCLC cell line, HCC827 and PC9 were generated by exposing these cells to increasing concentrations of EGFR TKI for over 3 months.
(§2) Gefitinib-resistant cells were referred to as HCC827/GR. […] Osimertinib-resistant cells were referred to as HCC827/OR.

[2] = tested on: HCC827/ER cells; test: Cell viability assay (CellTiter-Glo 2.0), erlotinib-resistant HCC827/ER cells; assay type: cell-based, human; details: Homo sapiens, HCC827ER, Table 4, 72 h drug treatment, combinations of EGFR TKIs and inhibitor of Formula (I), read-out: Relative cell viability
From the text: as §1, §2

[3] = tested on: HCC827/GR cells; test: Cell viability assay (CellTiter-Glo 2.0), gefitinib-resistant HCC827/GR cells; assay type: cell-based, human; details: Homo sapiens, HCC827; Table 4; 72 h drug treatment, combinations of EGFR TKIs and inhibitor of Formula (I); read-out: Relative cell viability; IC50 HCC827GR
From the text: as §1
The human cell line HCC827 was purchased from the American Type Culture Collection (Manassas, VA), and the PC9 cell line was obtained from RIKEN Cell Bank (Ibaraki, Japan). […] Gefitinib-resistant cells were referred to as HCC827/GR. […] Osimertinib-resistant cells were referred to as HCC827/OR.
(§3) Cell viability assays were carried out by plating 1,000 cells per well of HCC827 or PC9 resistant cells, respectively, into white transparent-bottom 384-well plates. The cells were treated with each TKI across a 10-dose range from 1 nM to 10,000 nM. After 72 h of drug treatment, cell viability was measured using the CellTiter-Glo 2.0 assay (Promega, Madison, WI).
as §3

[4] = tested on: HCC827/OR cells; test: Cell viability assay (CellTiter-Glo 2.0), osimertinib-resistant HCC827/OR cells; assay type: cell-based, human; details: Homo sapiens, HCC827; Table 4; 72 h drug treatment, combinations of EGFR TKIs and inhibitor of Formula (I); read-out: Relative cell viability; IC50 HCC827OR
From the text: as §1, §2

Structure (SMILES)	IC50 [1]	IC50 [2]	IC50 [3]	IC50 [4]
CN(C)C(=O)Cn1cc(C(=O)Nc2ccc(Oc3ccnc(N)c3C#CC(C)(C)N3CCOCC3)c(F)c2)c(=O)n(-c2ccc(F)cc2)c1=O [Example 33, N-(4-((2-amino-3-(3-methyl-3-morpholinobut-1-yn-1-yl)pyridin-4-yl)oxy)-3-fluorophenyl)-1-(2-(dimethylamino)-2-oxoethyl)-3-(4-fluorophenyl)-2,4-dioxo-1,2,3,4-tetrahydropyrimidine-5-carboxamide]	< 1000 nM	< 1000 nM	< 1000 nM	< 1000 nM
CN(C)C(=O)Cn1cc(C(=O)Nc2ccc(Oc3ccnc(N)c3C#CCN3CCOCC3)c(F)c2)c(=O)n(-c2ccc(F)cc2)c1=O [Example 34, N-(4-((2-amino-3-(3-morpholinoprop-1-yn-1-yl)pyridin-4-yl)oxy)-3-fluorophenyl)-1-(2-(dimethylamino)-2-oxoethyl)-3-(4-fluorophenyl)-2,4-dioxo-1,2,3,4-tetrahydropyrimidine-5-carboxamide]	< 10000 nM	< 1000 nM	< 1000 nM	< 10000 nM
CN(C)C(=O)Cn1cc(C(=O)Nc2ccc(Oc3ccnc(N)c3C#CC(C)(C)N3CCNCC3)c(F)c2)c(=O)n(-c2ccc(F)cc2)c1=O [Example 35, N-(4-((2-amino-3-(3-methyl-3-(piperazin-1-yl)but-1-yn-1-yl)pyridin-4-yl)oxy)-3-fluorophenyl)-1-(2-(dimethylamino)-2-oxoethyl)-3-(4-fluorophenyl)-2,4-dioxo-1,2,3,4-tetrahydropyrimidine-5-carboxamide]	> 10000 nM	< 10000 nM	> 10000 nM	< 10000 nM
CN1CCN(C(C)(C)C#Cc2c(Oc3ccc(NC(=O)c4cn(CC(=O)N(C)C)c(=O)n(-c5ccc(F)cc5)c4=O)cc3F)ccnc2N)CC1 [Example 36, N-(4-((2-amino-3-(3-methyl-3-(4-methylpiperazin-1-yl)but-1-yn-1-yl)pyridin-4-yl)oxy)-3-fluorophenyl)-1-(2-(dimethylamino)-2-oxoethyl)-3-(4-fluorophenyl)-2,4-dioxo-1,2,3,4-tetrahydropyrimidine-5-carboxamide]	< 10000 nM	< 10000 nM	< 10000 nM	< 10000 nM
CN1CCC(CC#Cc2c(Oc3ccc(NC(=O)c4cn(CC(=O)N(C)C)c(=O)n(-c5ccc(F)cc5)c4=O)cc3F)ccnc2N)CC1 [Example 37, N-(4-((2-amino-3-(3-(1-methylpiperidin-4-yl)prop-1-yn-1-yl)pyridin-4-yl)oxy)-3-fluorophenyl)-1-(2-(dimethylamino)-2-oxoethyl)-3-(4-fluorophenyl)-2,4-dioxo-1,2,3,4-tetrahydropyrimidine-5-carboxamide]	< 10000 nM	< 10000 nM	< 10000 nM	< 10000 nM
CN(C)C(=O)Cn1cc(C(=O)Nc2ccc(Oc3ccnc(N)c3C#CCC3CCNCC3)c(F)c2)c(=O)n(-c2ccc(F)cc2)c1=O [Example 38, N-(4-((2-amino-3-(3-(piperidin-4-yl)prop-1-yn-1-yl)pyridin-4-yl)oxy)-3-fluorophenyl)-1-(2-(dimethylamino)-2-oxoethyl)-3-(4-fluorophenyl)-2,4-dioxo-1,2,3,4-tetrahydropyrimidine-5-carboxamide]	< 10000 nM	< 10000 nM	< 10000 nM	< 10000 nM
Cc1nc(Cn2cc(C(=O)Nc3ccc(Oc4ccnc(N)c4C#CC(C)(C)N4CCOCC4)c(F)c3)c(=O)n(-c3ccc(F)cc3)c2=O)cs1 [Example 39, N-(4-((2-amino-3-(3-methyl-3-morpholinobut-1-yn-1-yl)pyridin-4-yl)oxy)-3-fluorophenyl)-3-(4-fluorophenyl)-1-((2-methylthiazol-4-yl)methyl)-2,4-dioxo-1,2,3,4-tetrahydropyrimidine-5-carboxamide]	< 100 nM	< 100 nM	< 100 nM	< 100 nM
Cc1nc(Cn2cc(C(=O)Nc3ccc(Oc4ccnc(N)c4C#CCN4CCOCC4)c(F)c3)c(=O)n(-c3ccc(F)cc3)c2=O)cs1 [Example 40, N-(4-((2-amino-3-(3-morpholinoprop-1-yn-1-yl)pyridin-4-yl)oxy)-3-fluorophenyl)-3-(4-fluorophenyl)-1-((2-methylthiazol-4-yl)methyl)-2,4-dioxo-1,2,3,4-tetrahydropyrimidine-5-carboxamide]	< 100 nM	< 100 nM	< 100 nM	< 1000 nM
Cc1nc(Cn2cc(C(=O)Nc3ccc(Oc4ccnc(N)c4C#CC(C)(C)N4CCNCC4)c(F)c3)c(=O)n(-c3ccc(F)cc3)c2=O)cs1 [Example 41, N-(4-((2-amino-3-(3-methyl-3-(piperazin-1-yl)but-1-yn-1-yl)pyridin-4-yl)oxy)-3-fluorophenyl)-3-(4-fluorophenyl)-1-((2-methylthiazol-4-yl)methyl)-2,4-dioxo-1,2,3,4-tetrahydropyrimidine-5-carboxamide]	< 1000 nM	< 1000 nM	< 1000 nM	< 1000 nM
Cc1nc(Cn2cc(C(=O)Nc3ccc(Oc4ccnc(N)c4C#CC(C)(C)N4CCN(C)CC4)c(F)c3)c(=O)n(-c3ccc(F)cc3)c2=O)cs1 [Example 42, N-(4-((2-amino-3-(3-methyl-3-(4-methylpiperazin-1-yl)but-1-yn-1-yl)pyridin-4-yl)oxy)-3-fluorophenyl)-3-(4-fluorophenyl)-1-((2-methylthiazol-4-yl)methyl)-2,4-dioxo-1,2,3,4-tetrahydropyrimidine-5-carboxamide]	< 1000 nM	< 100 nM	< 100 nM	< 1000 nM
Cc1nc(Cn2cc(C(=O)Nc3ccc(Oc4ccnc(N)c4C#CCC4CCN(C)CC4)c(F)c3)c(=O)n(-c3ccc(F)cc3)c2=O)cs1 [Example 43, N-(4-((2-amino-3-(3-(1-methylpiperidin-4-yl)prop-1-yn-1-yl)pyridin-4-yl)oxy)-3-fluorophenyl)-3-(4-fluorophenyl)-1-((2-methylthiazol-4-yl)methyl)-2,4-dioxo-1,2,3,4-tetrahydropyrimidine-5-carboxamide]	< 100 nM	< 100 nM	< 100 nM	< 1000 nM
Cc1nc(Cn2cc(C(=O)Nc3ccc(Oc4ccnc(N)c4C#CCC4CCNCC4)c(F)c3)c(=O)n(-c3ccc(F)cc3)c2=O)cs1 [Example 44, N-(4-((2-amino-3-(3-(piperidin-4-yl)prop-1-yn-1-yl)pyridin-4-yl)oxy)-3-fluorophenyl)-3-(4-fluorophenyl)-1-((2-methylthiazol-4-yl)methyl)-2,4-dioxo-1,2,3,4-tetrahydropyrimidine-5-carboxamide]	< 1000 nM	< 1000 nM	< 100 nM	< 1000 nM
CN1CCC(CC#Cc2c(Oc3ccc(NC(=O)c4nn(C)c(=O)n(-c5ccc(F)cc5)c4=O)cc3F)ccnc2N)CC1 [Example 45, N-(4-((2-amino-3-(3-(1-methylpiperidin-4-yl)prop-1-yn-1-yl)pyridin-4-yl)oxy)-3-fluorophenyl)-4-(4-fluorophenyl)-2-methyl-3,5-dioxo-2,3,4,5-tetrahydro-1,2,4-triazine-6-carboxamide]	< 1000 nM	< 1000 nM	< 1000 nM	< 10000 nM
Cn1nc(C(=O)Nc2ccc(Oc3ccnc(N)c3C#CCC3CCNCC3)c(F)c2)c(=O)n(-c2ccc(F)cc2)c1=O [Example 46, N-(4-((2-amino-3-(3-(piperidin-4-yl)prop-1-yn-1-yl)pyridin-4-yl)oxy)-3-fluorophenyl)-4-(4-fluorophenyl)-2-methyl-3,5-dioxo-2,3,4,5-tetrahydro-1,2,4-triazine-6-carboxamide]	< 10000 nM	< 10000 nM	< 1000 nM	< 10000 nM
Cn1nc(C(=O)Nc2ccc(Oc3ccnc(N)c3C#CC(C)(C)N3CCNCC3)c(F)c2)c(=O)n(-c2ccc(F)cc2)c1=O [Example 47, N-(4-(2-amino-3-(3-methyl-3-(piperazin-1-yl)but-1-ynyl)pyridin-4-yloxy)-3-fluorophenyl)-4-(4-fluorophenyl)-2-methyl-3,5-dioxo-2,3,4,5-tetrahydro-1,2,4-triazine-6-carboxamide]	< 10000 nM	< 10000 nM	< 10000 nM	< 10000 nM
Cn1nc(C(=O)Nc2ccc(Oc3ccnc(N)c3C#CC(C)(C)N3CCOCC3)c(F)c2)c(=O)n(-c2ccc(F)cc2)c1=O [Example 48, N-(4-(2-amino-3-(3-methyl-3-morpholinobut-1-ynyl)pyridin-4-yloxy)-3-fluorophenyl)-4-(4-fluorophenyl)-2-methyl-3,5-dioxo-2,3,4,5-tetrahydro-1,2,4-triazine-6-carboxamide]	< 1000 nM	< 1000 nM	< 1000 nM	< 1000 nM

Reference: patent US12421207B2 (CMG Pharmaceutical Co., Ltd., priority 2022, dated 2025)
